These results are taken from patent US5985885A, “Quinazoline-4-amino-2-(piperidine-1-yl-4-substituted) derivatives having antihypertensive activity, a method for their preparation and their pharmaceutical use” (priority 1996, dated 1999).

Structures can show the parent of a compound that is named as a salt. Where two headings read alike, the source gives them in different places.

The target of data set [1] is T1, alpha1A adrenergic receptor (rat GSM) (Rattus norvegicus, UniProt P43140).
T1 sequence (P43140 1-466): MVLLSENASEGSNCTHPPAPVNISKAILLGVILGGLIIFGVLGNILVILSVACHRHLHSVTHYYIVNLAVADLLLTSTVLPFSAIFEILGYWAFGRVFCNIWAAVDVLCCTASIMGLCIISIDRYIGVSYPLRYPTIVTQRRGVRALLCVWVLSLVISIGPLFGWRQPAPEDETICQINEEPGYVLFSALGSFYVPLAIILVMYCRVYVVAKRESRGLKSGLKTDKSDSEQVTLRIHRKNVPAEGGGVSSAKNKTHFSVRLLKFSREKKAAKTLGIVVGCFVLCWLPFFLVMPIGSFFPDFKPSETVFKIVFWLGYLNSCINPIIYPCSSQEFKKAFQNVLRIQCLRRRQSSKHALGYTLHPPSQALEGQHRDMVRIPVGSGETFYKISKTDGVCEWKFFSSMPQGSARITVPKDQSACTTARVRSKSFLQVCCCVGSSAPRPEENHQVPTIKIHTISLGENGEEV
Description: [3H]-prazosin binding in rat submaxillary glands (GSM). The settings on record: alpha1A subtype, pH 7.4, 45 min, 25° C., read-out: Inhibition of the binding of [3H]-prazosin IC50.

Data set [2] concerns the target T2, 5-HT2 receptors (isolated rabbit aorta) (Oryctolagus cuniculus, UniProt G1SYA7).
T2 construct: Four rings formed from rabbit aorta were joined together to form a chain; from tissue; host or cells: isolated rabbit aorta rings
Description: Antagonism of serotonin-induced contraction of isolated rabbit aorta. The conditions noted are these: for IC50: isolated rabbit aorta, 37° C., compound 10 min before agonist, limits (p < 0.05). Here is the method:
The antagonist activity of some of the compounds of the invention on the contractile activity of seratonin on isolated rabbit aorta, effected principally by way of the 5-HT2 receptors, is reported here by way of example. The method of Feniuk et al [Br. J. Pharmacol. (1985), 86, 697-704] was used, with slight modifications. Four rings formed from rabbit aorta were joined together to form a chain; the preparation was placed in an isolated organ bath in the presence of Krebs at 37° C. and attached to an isometric transducer, a tension of 2 g being applied and oxygenation was carried out continuously with O2 --CO2 (95-5 v/v). A seratonin concentration(0.3 μM) was used that was capable of causing sub-maximal contraction of the preparation. […] The results obtained in this way are given in Table 4 below which, for several of the compounds of the invention gives IC50 values calculated by the regression method on a set of at least 2 experiments at 5 different concentrations for each of the compounds examined, these being compared with values obtained for several reference compounds.

Data set [3] relates to anaesthetised normotensive rat. Description: Hypotensive activity in the anaesthetised normotensive rat (IV). Format: in vivo. The conditions noted are these: for ED30: Rattus norvegicus, read-out: Reduction in mean arterial pressure ED30. Here is the method: In order to evaluate the in vivo activity, some of the compounds of the invention were administered (IV) in bolus form to the normotensive rat anaesthetised with urethane plus ketamine. The compounds were administered in at least three doses in experiments performed in duplicate so as to enable the calculation of ED30 values, that is, the dose in mg/kg that reduces the mean basal arterial pressure by 30%. The compounds of the invention, and several reference standards, were dissolved in dilute hydrochloric acid at a physiologically acceptable pH, and physiological solution was administered in a volume of 3 ml/kg. Evaluations were made at two time periods, that is, the intervals 0-30 min and 30-60 min after administration.

The test system of data set [4] is spontaneously hypertensive (SHR) rat. Description: Anti-hypertensive activity in the spontaneously hypertensive (SHR) rat (oral). Format: in vivo. The source says: Animals having a mean basal systolic pressure of not less than 180 mmHg were used.
The subject of data set [5] is alpha1A, alpha1B and alpha1C adrenergic receptor subtypes. Nature of the data set: [3H]-prazosin binding, alpha1 subtypes together (Table 3 overall). The conditions noted are these: reference compounds versus compounds of the invention/prazosin.
For data set [6], the target named is alpha1A + alpha1C adrenergic receptor (human prostate). Nature of the data set: [3H]-prazosin binding in human prostate. The conditions noted are these: alpha1A + alpha1C subtype, pH 7.5, 30 min, 25° C., read-out: Inhibition of the binding of [3H]-prazosin IC50.
A short description of the next data set: in vivo. The settings on record: rat.
Data set [7] addresses T3, alpha1B adrenergic receptor (rat liver) (Rattus norvegicus, UniProt P15823).
T3 sequence (P15823 1-515): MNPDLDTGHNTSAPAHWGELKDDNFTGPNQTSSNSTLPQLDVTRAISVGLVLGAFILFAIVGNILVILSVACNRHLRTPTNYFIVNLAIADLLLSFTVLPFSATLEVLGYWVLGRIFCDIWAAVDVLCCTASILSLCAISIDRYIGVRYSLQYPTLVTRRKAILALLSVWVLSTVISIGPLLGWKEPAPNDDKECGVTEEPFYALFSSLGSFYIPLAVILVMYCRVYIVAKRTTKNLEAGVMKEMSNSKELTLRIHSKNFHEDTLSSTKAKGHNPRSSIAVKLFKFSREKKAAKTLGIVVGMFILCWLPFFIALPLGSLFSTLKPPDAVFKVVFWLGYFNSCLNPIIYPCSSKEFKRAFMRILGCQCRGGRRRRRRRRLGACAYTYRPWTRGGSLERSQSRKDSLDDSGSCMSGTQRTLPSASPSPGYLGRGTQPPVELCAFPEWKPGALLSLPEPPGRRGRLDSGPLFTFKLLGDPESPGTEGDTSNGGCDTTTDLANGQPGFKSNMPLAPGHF
Description: [3H]-prazosin binding in rat liver.

T2 sequence (G1SYA7 1-469): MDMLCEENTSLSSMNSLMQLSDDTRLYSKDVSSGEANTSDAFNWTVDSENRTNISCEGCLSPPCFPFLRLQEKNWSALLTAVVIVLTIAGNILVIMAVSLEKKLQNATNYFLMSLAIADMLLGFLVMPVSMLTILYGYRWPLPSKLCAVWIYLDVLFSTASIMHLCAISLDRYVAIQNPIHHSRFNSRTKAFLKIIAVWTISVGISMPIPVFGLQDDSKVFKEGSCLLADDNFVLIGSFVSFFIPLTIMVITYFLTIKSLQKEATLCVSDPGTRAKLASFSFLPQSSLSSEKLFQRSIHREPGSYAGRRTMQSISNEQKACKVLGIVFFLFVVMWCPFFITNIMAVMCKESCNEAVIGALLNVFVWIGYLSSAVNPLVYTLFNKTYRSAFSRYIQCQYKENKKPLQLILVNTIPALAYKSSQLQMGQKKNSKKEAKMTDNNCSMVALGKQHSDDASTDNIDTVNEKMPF

With `COc1cccc(OC)c1OCCNCC1COc2ccccc2O1` (stereo not drawn) [WB-4101, reference compound], the IC50 (as a rule, the concentration at which inhibition is half-maximal) in data set [1] came to 16.5 nM. The IC50 in data set [2] was greater than 145 µM. Also, the “5-HT2-antagonist activity (in words)” value in data set [2] (rabbit aorta) is “inactive until higher doses (50 μg/ml)”. For the same molecule, the “hypotensive activity compared with prazosin/compounds (in words)” value in data set [3] (IV bolus) was “less active”. Moreover, in data set [3] (iv, 0.5 h), the ED30 worked out at 0.13 mg/kg. Further, the ED30 in data set [3] (iv, 1 h) was 0.29 mg/kg. Besides, in data set [4], the “anti-hypertensive action (in words)” value was “inactive”; the “Cardiac frequency, max effect at 3 mg/kg” value is given as -5.7 % vs basal; the “Systolic pressure, max effect at 3 mg/kg” value is recorded as -2.6 % vs basal. The “Systolic pressure ED20 (0-120 min)” value in data set [4] (0-120 min, NC: not calculable) is on record as “INACTIVE”. Further, the “times less powerful (on average)” value in data set [5] is reported as 10 to 30 times.

In the case of `COc1cc2nc(N3CCC(c4ccccn4)CC3)nc(N)c2cc1OC` [Compound 7, 1-(4-amino-6,7-dimethoxy-2-quinazolinyl)-4-(2-pyridyl)piperidine(hydrochloride)], the IC50 was 3.1 nM in data set [1], 5 nM in data set [6], 54.7 µM in data set [2] and 8.2 nM in data set [7]. Also, the ED30 was 0.08 mg/kg in data set [3] (0.5 h, IV bolus, interval 0-30 min) and 0.09 mg/kg in data set [3] (1 h, IV bolus, interval 30-60 min). In data set [4], the “anti-hypertensive action (in words)” value is “about as powerful as prazosin”. In addition, the “Cardiac frequency, max effect at 3 mg/kg” value in data set [4] was “+0.9 % vs basal”. In data set [4], the “Systolic pressure, max effect at 3 mg/kg” value is on record as -22.7 % vs basal. The ED20 in data set [4] (Rattus norvegicus, 2 h, 0-120 min, NC: not calculable, read-out: Systolic pressure ED20 (0-120 min)) was 2.2 mg/kg. In “in vivo” (plasma, po, 15 mg/kg OS vs 1 mg/kg IV, read-out: relative bioavailability (AUC OS/AUC IV, dose corrected)), the bioavailability is roughly 80%. For the same molecule, the area under the curve (AUC) – broadly, the area under the concentration-time curve, a measure of exposure – in “in vivo” (plasma, po, OS 15 mg/kg) worked out at 3620 ng·h/mL; in the data set “in vivo” (plasma, IV 1 mg/kg), 300 ng·h/mL. Also, the concentration at 0.25 h was found to be 230 ng/mL in “in vivo” (plasma, po, OS 15 mg/kg) and 300 ng/mL in “in vivo” (plasma, IV 1 mg/kg). Besides, the concentration at 0.5 h stood at 360 ng/mL in the data set “in vivo” (plasma, po, OS 15 mg/kg) and 180 ng/mL in the data set “in vivo” (plasma, IV 1 mg/kg). Moreover, the concentration at 1 h came out at 480 ng/mL in the data set “in vivo” (plasma, po, OS 15 mg/kg) and 100 ng/mL in “in vivo” (plasma, IV 1 mg/kg). For the same molecule, the concentration at 2 h stood at 390 ng/mL in “in vivo” (plasma, po, OS 15 mg/kg) and 40 ng/mL in the data set “in vivo” (plasma, IV 1 mg/kg). Further, the concentration at 3 h was 340 ng/mL in “in vivo” (plasma, po, OS 15 mg/kg, 3 h) and 20 ng/mL in the data set “in vivo” (plasma, iv, 1 mg/kg). For the same molecule, the concentration at 4 h was found to be 320 ng/mL in “in vivo” (plasma, po, OS 15 mg/kg, 4 h) and 10 ng/mL in the data set “in vivo” (plasma, iv, 1 mg/kg). The concentration at 6 h in “in vivo” (plasma, po, OS 15 mg/kg, 6 h) was determined as 280 ng/mL. Further, in “in vivo” (plasma, po, OS 15 mg/kg, 8 h), the concentration at 8 h is 180 ng/mL. For the same molecule, the concentration at 12 h in “in vivo” (plasma, po, OS 15 mg/kg, 12 h) turned out to be 80 ng/mL. The concentration at 0.083 h in the data set “in vivo” (plasma, IV 1 mg/kg, 0.083 h) was 420 ng/mL. The molecule also returned a Plasma concentration in “in vivo” (IV 1 mg/kg, 6 h) of 0 µg/mL. For the same molecule, the concentration at 24 h in the data set “in vivo” (plasma, po, 15 mg/kg) worked out at 20 ng/mL. Besides, in the data set “in vivo” (plasma, read-out: half-life, terminal elimination phase (converted)), the half-life (usually how long it takes for the measured level to halve) is roughly 360 min.

Turning to `O=C(c1ccc(F)cc1)C1CCN(CCn2c(=O)[nH]c3ccccc3c2=O)CC1` [Ketanserine, reference compound], the 50% inhibitory concentration (IC50) is 48.2 nM in data set [1], 270 nM in data set [6], 0.228 µM in data set [2] and 29.9 nM in data set [7]. For the same molecule, the “times less powerful (on average)” value in data set [5] fell in the range of 10 to 30 times.
